{"source": "paper PMC6196658", "about": "“Activity of Thioallyl Compounds From Garlic Against Giardia duodenalis Trophozoites and in Experimental Giardiasis” (Frontiers in Cellular and Infection Microbiology, 2018)", "key": {"[1]": {"tested_on": "G. duodenalis trophozoites", "test": "Annexin V-PI flow cytometry (apoptosis/necrosis)", "type": "cell-based, Giardia duodenalis", "details": "0.48 μM, 24 h", "protocol": "(§1) The identification and quantitative determinations of trophozoites were carried out as follows: (a) apoptosis or necrosis were determined using anti-annexin V-fluorescein isothiocyanate (FITC) antibodies or PI as respective markers, (b) oxidative stress was determined by formation of reactive oxygen species (ROS) with the fluorescent ROS-complexing agent 5-(and 6)-carboxy 2′7′-dichlorodihydrofluorescein diacetate (H2DCFDA), and (c) determination of trophozoites cell cycle stages (G1, S, G2, and G2/M) after exposure to ALC or to a control drug (albendazole, ABZ) was carried out as previously described (Martínez-Espinosa et al., [2015]). In all these assays 20,000 cells per sample were recorded."}, "[2]": {"tested_on": "G. duodenalis trophozoites", "test": "ROS formation, H2DCFDA flow cytometry", "type": "cell-based, Giardia duodenalis", "protocol": "as §1"}, "[3]": {"tested_on": "G. duodenalis trophozoites", "test": "Cell cycle stages, PI flow cytometry", "type": "cell-based, Giardia duodenalis", "details": "1.35 μM, 24 h", "protocol": "as §1"}, "[4]": {"tested_on": "G. duodenalis trophozoites", "test": "In vitro susceptibility, subculture in liquid medium (SCLM)", "type": "cell-based, Giardia duodenalis (WB strain)", "details": "for MLC (mM) ±SD / IC50: SCLM, 24 h exposure; for IC50: read-out: IC50 (mM) ±SD"}, "[5]": {"tested_on": "cysteine protease activities in trophozoite lysates", "test": "Proteolytic activity assay (gelatin zymogram)", "type": "biochemical, Giardia duodenalis", "protocol": "Trophozoite lysates were prepared as mentioned above except that cell lysis was carried out by sonication in 1.5 mL microcentrifuge tubes under ice bath using eight 15-s pulses at 80% amplitude with resting periods of 30 s (Ultrasonic Processor mod. CV19). Protein concentration was adjusted to 2 mg/mL and aliquoted in 25 μL fractions that were incubated for 30 min room temperature with 2–5 μL stock solutions of representative TACs (ALC, DADS, and AM). The reaction mixtures were diluted in Laemmli's sample buffer, loaded in wells of 10% acrylamide-02% gelatin slab gels and these were electrophoretically analyzed using 80 V/4°C. After this, gels were incubated in a solution of triton X-100 2.5% (v/v) in water for 1 h and washed 3 times with distilled water. Bands with proteolytic activity were detected as follows: gels were incubated in acetate buffer pH 5.5 with 1 mM DTT for 16 h at 37°C under constant stirring, washed 3 times with distilled water and stained with Coomassie blue (BioRad) for 2 h at 37°C under constant stirring. Finally, gels were washed with distilled water and incubated with a solution of 5% acetic acid/40% methanol (v/v). Gel images were documented with a UVP High Performance Ultraviolet Transilluminator and software Launch DocItLS."}, "giardipain-1": {"molecular_target": "T1, giardipain-1 (Giardia intestinalis, UniProt P92132)", "T1 construct": "the 25 kDa band that contains the processed form of the cathepsin B-like protease named as giardipain-1; endogenous in cells", "T1 sequence (P92132 75-300)": "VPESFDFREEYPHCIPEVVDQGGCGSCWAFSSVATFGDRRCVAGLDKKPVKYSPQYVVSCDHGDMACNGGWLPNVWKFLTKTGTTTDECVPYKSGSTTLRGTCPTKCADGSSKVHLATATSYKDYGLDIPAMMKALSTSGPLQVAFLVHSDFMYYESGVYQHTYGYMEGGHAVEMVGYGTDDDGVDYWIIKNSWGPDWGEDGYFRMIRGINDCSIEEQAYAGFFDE", "test": "Inhibition of cytolytic effect of giardipain-1 on IEC6 cell monolayers", "type": "cell-based, Giardia duodenalis", "details": "100 min", "protocol": "(§2) Additional assays were carried out using the MLCs of TACs (without giardipain-1) previously obtained in trophozoite cultures to monitor their toxicity. These solutions were added to monolayers of the intestinal cell line IEC6 grown in 1 cm^2-microwells and incubated for 100 min at 37°C. After incubation, supernatants were discarded and monolayers were fixed with 2% paraformaldehyde in PBS. The effects of TACs and E64 on the cytolytic effect of giardipain-1 were evaluated by light microscopy using Nomarski optics (Axioskop 40, Zeiss)."}, "[6]": {"tested_on": "thiol groups exposed in G. duodenalis trophozoite proteins", "test": "Thiol-modifying activity (inhibition of thiol-DTNB complexes)", "type": "biochemical, Giardia duodenalis", "details": "100 μg soluble trophozoite protein, 10 min 37°C, DTNB 412 nm", "protocol": "The technique reported by Lawson and Wang ([1993]) was followed. In these assays trophozoites were collected from 60 mL flasks, washed 3 times with PBS and resuspended in 500 μL PBS containing a 1:12.5 dilution of a commercial mixture of protease inhibitors (Complete^TM, Roche Diagnostics GmbH, Indianapolis, IN, USA) and lysed by sonication at 12 microns/60% amplitude (Ultrasonic apparatus Sonic UVX1130PB). Soluble proteins were recovered by centrifugation at 15,400 × g for 30 min at 4°C and protein concentration was determined by the Bradford technique. These samples were adjusted to a concentration of 1 mg/mL. Reactions were carried out in 1.5 mL microcentrifuge tubes with a mixture of 100 μg protein (100 μL) and NaH2PO4 45 mM pH 7.0 mM (800 μL) to which increasing volumes of TACs stocks or a positive control with the thiol derivatizing agent MMTS prepared at 50 mM in the same buffer, were added and total volume was adjusted to 1 mL. After incubation for 10 min at 37°C, 100 μL of 1.5 mM dithionitrobenzoic acid (DTNB, Ellman's reagent) were added to each tube and following incubation for 10 min at room temperature the absorbances (yellow solutions) were recorded at 412 nm (Smart Spec 3000^TM, Bio-Rad, Hercules, CA, USA). A calibration curve was obtained using increasing volumes (0–100 μL) of 15.5 mM cysteine instead protein extracts and the maximal blocking concentration (MBC) corresponding to a complete absence of thiol-DTNB complexes produced by TACs were calculated using the least-square method (Microsoft Excel^TM)."}, "IEC6 cell monolayers": {"tested_on": "IEC6 cell monolayers", "test": "Toxicity of TACs on IEC6 cell monolayers", "type": "cell-based", "details": "275 mM, without giardipain-1, 100 min", "protocol": "as §2"}, "[7]": {"tested_on": "G. duodenalis trophozoites", "set-up": "method as in Argüello-García et al., 2004", "details": "positive control drug; ref Argüello-García et al., 2004; cited from earlier work"}, "[8]": {"tested_on": "G. duodenalis trophozoites", "test": "Efficacy in experimental giardiasis", "details": "read day 13", "method": "Eighty male Mongolian gerbils (M. unguiculatus) 6–10 weeks old, weighted 45–60 g and sentinel-checked gerbils free of intestinal parasites were kept in individual cages and distributed in 12 groups of 6 animals per treatment and experimental infections were performed as described elsewhere (Argüello-García and Ortega-Pierres, [1997]). In brief, animals were inoculated intragastrically with 1 × 10^6 G. duodenalis trophozoites in 500 μl sterile PBS per os using gavage under ether anesthesia. Control animals received 500 μl sterile PBS each. […] As additional control, one group of animals received MTZ (38.4 mg/kg at single or double dose). […] Treatment efficacy was evaluated by determining the presence or absence of trophozoites in intestinal contents of control and treated gerbils at day 13 post-infection. For this, gerbils were euthanized by an intraperitoneal injection of pentobarbital at a dose of 150 mg/kg to minimize stress and to reduce suffering, then a 10 cm-long section of intestine (from stomach ending, equivalent to nearly the entire small intestine) was excised after laparotomy, and it was longitudinally opened and rinsed in 20 mL PBS at 4°C for 20 min under shaking (720 rpm, Heidolph^TM rotatory shaker) to determine trophozoites number after parasite detachment from microvilli. Supernatant was collected and centrifuged at 750 × g for 10 min at 4°C, cell pellet was resuspended in 1 mL PBS and trophozoites were counted using a haemocytometer. Gerbils were scored as cured if no trophozoites were recovered from infected animals."}}, "note": "Several values for one entry are separate records, joined by “and”; a condition that tells them apart may be missing. Equal entries are not always repeated. Where two headings read alike, the source gives them in different places."}
{"compound": "CCCSc1ccc2nc(NC(=O)OC)[nH]c2c1", "note": "[ABZ, albendazole]", "values": [{"measurement": "R1 cells positive for necrosis (PI+)", "setting": "[1]", "result": 5, "unit": "%"}, {"measurement": "cells in apoptosis (early plus late)", "setting": "[1]", "result": 41.0, "unit": "%"}, {"measurement": "cells positive for ROS (total)", "setting": "[2]; ABZ control, 0.48 μM per Figure 9, 24 h", "result": 33.85, "unit": "%"}, {"measurement": "cells at G2 phase", "setting": "[3]", "result": 69.9, "unit": "%"}, {"measurement": "cells at S phase", "setting": "[3]", "result": 22.1, "unit": "%"}]}
{"compound": "C=CCS", "note": "[AM, allyl mercaptan]", "values": [{"measurement": "MLC (mM) ±SD", "setting": "[4]", "result": 3.06, "unit": "mM"}, {"measurement": "MLC (mM) ±SD", "setting": "[4]; listed as Allyl Mercaptan (AM)", "result": "3.06 ± 0.7", "unit": "mM"}, {"measurement": "IC50", "setting": "[4]", "result": "0.83 ± 0.2", "unit": "mM"}, {"measurement": "effect on proteolytic bands in zymogram", "setting": "[5]; bands of 75, 60 and 25 kDa, concentration not given", "result": "significant increase of activity"}, {"measurement": "effect on giardipain-1 cytopathic damage in IEC6 monolayers", "setting": "giardipain-1; 514 mM pre-incubated 30 min with giardipain-1 16 μg/mL", "result": "noticeably blocked these effects"}]}
{"compound": "C=CCSC", "note": "[AMS, allyl methyl sulfide]", "values": [{"measurement": "MLC (mM) ±SD", "setting": "[4]", "result": 74.28, "unit": "mM"}, {"measurement": "MLC (mM) ±SD", "setting": "[4]; listed as Allyl Methyl Sulfide (AMS)", "result": "74.28 ± 12.3", "unit": "mM"}, {"measurement": "IC50", "setting": "[4]", "result": "40.3 ± 3.5", "unit": "mM"}, {"measurement": "MBC (maximal blocking concentration) ± SD", "setting": "[6]", "result": "845.9 mmol/mg protein and 845.96 ± 78.1 mmol/mg protein"}]}
{"compound": "C=CCSSCC=C", "note": "[DADS, diallyl disulphide]", "values": [{"measurement": "MLC (mM) ±SD", "setting": "[4]", "result": 2.66, "unit": "mM"}, {"measurement": "MLC (mM) ±SD", "setting": "[4]; listed as Diallyl Disulfide (DADS)", "result": "2.66 ± 0.8", "unit": "mM"}, {"measurement": "IC50", "setting": "[4]", "result": "1.4 ± 0.6", "unit": "mM"}, {"measurement": "MBC (maximal blocking concentration) ± SD", "setting": "[6]", "result": "> 200 mmol/mg protein and 224.58 ± 18.8 mmol/mg protein"}, {"measurement": "effect on proteolytic bands in zymogram", "setting": "[5]; 275 mM", "result": "could diminish similar activities except for the one at 60 kDa"}, {"measurement": "effect on giardipain-1 cytopathic damage in IEC6 monolayers", "setting": "giardipain-1; 275 mM pre-incubated 30 min with giardipain-1 16 μg/mL", "result": "reduced the frequency of cells displaying apoptotic damage"}, {"measurement": "toxicity to IEC6 cell monolayers", "setting": "IEC6 cell monolayers", "result": "affected some cells"}]}
{"compound": "C=CCSCC=C", "note": "[DAS, diallyl sulfide]", "values": [{"measurement": "IC50", "setting": "[4]; Giardia duodenalis", "result": "14.5 ± 2.3", "unit": "mM"}, {"measurement": "MLC (mM) ±SD", "setting": "[4]", "result": 23.71, "unit": "mM"}, {"measurement": "MLC (mM) ±SD", "setting": "[4]; listed as Diallyl Sulfide (DAS)", "result": "23.71 ± 6.0", "unit": "mM"}, {"measurement": "MBC (maximal blocking concentration) ± SD", "setting": "[6]", "result": "351.3 mmol/mg protein and 351.34 ± 78.9 mmol/mg protein"}]}
{"compound": "C=CCSSSCC=C", "note": "[DATS, diallyl trisulfide]", "values": [{"measurement": "MLC (mM) ±SD", "setting": "[4]", "result": "1.35 ± 0.18", "unit": "mM"}, {"measurement": "MBC (maximal blocking concentration) ± SD", "setting": "[6]", "result": "> 200 mmol/mg protein and 201.61 ± 33.4 mmol/mg protein"}]}
{"compound": "CC(C)C[C@H](NC(=O)[C@H]1O[C@@H]1C(=O)O)C(=O)NCCCCN=C(N)N", "note": "[E64, reference compound]", "values": [{"measurement": "effect on proteolytic bands in zymogram", "setting": "[5]; 20 μM", "result": "selective inhibition on the 25 kDa band"}, {"measurement": "effect on giardipain-1 cytopathic damage in IEC6 monolayers", "setting": "giardipain-1; 20 μM pre-incubated 30 min with giardipain-1 16 μg/mL", "result": "efficiently inhibited the giardipain-1 induced damage"}]}
{"compound": "CSS(C)(=O)=O", "note": "[MMTS, methyl methanethiosulfonate, reference compound]", "values": [{"measurement": "MBC (maximal blocking concentration) ± SD", "setting": "[6]", "result": "55.45 ± 3.2", "unit": "mmol/mg protein"}]}
{"compound": "Cc1ncc([N+](=O)[O-])n1CCO", "note": "[MTZ, metronidazole, reference compound]", "values": [{"measurement": "inhibition at 3 µM", "setting": "[4]; Giardia duodenalis, 3.0 μM, 24 h, positive control, read-out: inhibition of trophozoite growth", "result": "45 to 55", "unit": "%"}, {"measurement": "inhibition at 5.9 µM", "setting": "[4]; Giardia duodenalis, 5.9 μM, 24 h, positive control, read-out: inhibition of trophozoite growth", "result": "> 95", "unit": "%"}, {"measurement": "IC50", "setting": "[7]", "result": 0.003, "unit": "mM"}, {"measurement": "MLC", "setting": "[7]", "result": 0.0059, "unit": "mM"}, {"measurement": "cure rate (gerbils without trophozoites)", "setting": "[8]; 36 mg/kg at twice dose", "result": "5 out of 6"}, {"measurement": "cure rate (gerbils without trophozoites)", "setting": "[8]; 36 mg/kg single dose", "result": "3 out of 6"}]}
{"compound": "CC(C)(C)OO", "note": "[TBHP, tert-butyl hydroperoxide]", "values": [{"measurement": "cells positive for ROS (total)", "setting": "[2]; TBHP control, 400 μM per Figure 9, 24 h", "result": 17.1, "unit": "%"}]}
{"compound": "O=C([O-])c1cc[c]([Hg][OH])cc1.[Na+]", "note": "[pHMB, sodium p-hydroxymercuribenzoate, reference compound]", "values": [{"measurement": "effect on proteolytic bands in zymogram", "setting": "[5]; 10 mM", "result": "full inhibition of all proteolytic bands"}]}
{"compound": "S-allyl-L-cysteine [SAC]", "values": [{"measurement": "MLC (mM) ±SD", "setting": "[4]", "result": 69.1, "unit": "mM"}, {"measurement": "MLC (mM) ±SD", "setting": "[4]; listed as S-Allyl Cysteine (SAC)", "result": "69.10 ± 13.1", "unit": "mM"}, {"measurement": "IC50", "setting": "[4]", "result": "40.8 ± 6.3", "unit": "mM"}, {"measurement": "MBC (maximal blocking concentration) ± SD", "setting": "[6]", "result": "1260.9 mmol/mg protein and 1260.99 ± 125.6 mmol/mg protein"}]}
